Source: US9029325B2, “Amylin analogues and pharmaceutical compositions thereof” (Novo Nordisk A/S, priority 2011, dated 2015)
Starred links: 1 amine or outer side, 2 acyl side, 3 side chain; linkers in the order of their positions; H or OH if unused. Positions of bridges follow the written chain, without caps; N, C: chain ends. Residues, ends and D or L forms follow the SMILES beside them. *: point of attachment. C20 diacid = O=C(O)CCCCCCCCCCCCCCCCCCC(=O)*; C18 diacid = O=C(O)CCCCCCCCCCCCCCCCC(=O)*; γGlu = O=C(O)[C@H](CCC(=O)[*:2])N[*:1]

Assay: Assay (I) efficacy testing on appetite (food intake), ad libitum fed rat model
Format: in vivo, Sprague Dawley (SD) rats
From the text: Sprague Dawley (SD) rats from Taconic Europe, Denmark are used for the experiments. The rats have a body weight 200-250 g at the start of experiment. The rats arrive at least 10-14 days before start of experiment to allow acclimatization to experimental settings. During this period the animals are handled at least 2 times. After arrival rats are housed individually for one week in a reversed light/dark phase (meaning that lights are off during daytime and on during nighttime) […]. Since rats are normally active and eat their major part of their daily food intake during the dark period, rats are dosed in the morning right before lights are turned off. This set-up results in the lowest data variation and highst test sensitivity. The experiment is conducted in the rats' home cages and rats have free access to food and water througout the acclimatization period and the experiment period. Each dose of derivative is tested in a group of 5-8 rats. A vehicle group of 6-8 rats is included in each set of testing. Rats are dosed once according to body weight with a 0.01-3 mg/kg solution administered intraperitoneally (ip), orally (po) or subcutaneously (sc). The time of dosing is recorded for each group. After dosing, the rats are returned to their home cages, where they then have access to food and water. The food consumption is recorded individually continuously by on-line registration or manually every hour for 7 hours, and then after 24 h and sometimes 48 h. At the end of the experimental session, the animals are euthanised.
The individual data are recorded in Microsoft excel sheets. Outliers are excluded after applying the Grubbs statistical evaluation test for outliers, and the result is presented graphically using the GraphPad Prism program.

| Structure (SMILES) | Food intake reduction 0-24 h 3 nmol/kg (%) | Food intake reduction 24-48 h 3 nmol/kg (%) | Food intake reduction 0-24 h 30 nmol/kg (%) | Food intake reduction 24-48 h 30 nmol/kg (%) |
| --- | --- | --- | --- | --- |
| CC[C@H](C)[C@H](NC(=O)[C@@H]1CCCN1C(=O)CNC(=O)[C@H](Cc1ccccc1)NC(=O)[C@H](CC(N)=O)NC(=O)[C@H](CC(N)=O)NC(=O)[C@H](CO)NC(=O)[C@H](CO)NC(=O)[C@H](Cc1c[nH]cn1)NC(=O)[C@H](Cc1c[nH]cn1)NC(=O)[C@H](CC(C)C)NC(=O)[C@H](Cc1ccccc1)NC(=O)[C@H](CCC(=O)O)NC(=O)[C@H](C)NC(=O)[C@H](CC(C)C)NC(=O)[C@H](CCCNC(=N)N)NC(=O)[C@H](CCC(N)=O)NC(=O)[C@@H](NC(=O)[C@H](C)NC(=O)[C@@H]1CSSC[C@H](NC(=O)[C@H](CCCCN)NC(=O)CC[C@H](NC(=O)CCCCCCCCCCCCCCCCCCC(=O)O)C(=O)O)C(=O)N[C@@H](CC(N)=O)C(=O)N[C@@H]([C@@H](C)O)C(=O)N[C@@H](C)C(=O)N[C@@H]([C@@H](C)O)C(=O)N1)[C@@H](C)O)C(=O)N[C@@H](CC(C)C)C(=O)N1CCC[C@H]1C(=O)N1CCC[C@H]1C(=O)N[C@H](C(=O)N[C@@H](CC(N)=O)C(=O)N[C@H](C(=O)NCC(=O)N[C@@H](CO)C(=O)N[C@@H](Cc1c[nH]cn1)C(=O)N[C@H](C(=O)N[C@@H](Cc1ccc(O)cc1)C(N)=O)[C@@H](C)O)C(C)C)[C@@H](C)O [Example 55, N-alpha-[(S)-4-Carboxy-4-(19-carboxynonadecanoylamino)butyryl]-[Glu14,His17,His 35]-pramlintide] ({C20 diacid-γGlu}-KCNTATCATQRLAEFLHHSSNNFGPILPPTNVGSHTY-NH2; disulfide 2-7 (inferred); C-terminus assumed) | 58% | 40% | 88% | 90% |
| CC[C@H](C)[C@H](NC(=O)[C@@H]1CCCN1C(=O)CNC(=O)[C@H](Cc1ccccc1)NC(=O)[C@H](CC(N)=O)NC(=O)[C@H](CC(N)=O)NC(=O)[C@H](CO)NC(=O)[C@H](CO)NC(=O)[C@H](Cc1c[nH]cn1)NC(=O)[C@H](CCCNC(=N)N)NC(=O)[C@H](CC(C)C)NC(=O)[C@H](Cc1ccccc1)NC(=O)[C@H](CCC(=O)O)NC(=O)[C@H](C)NC(=O)[C@H](CC(C)C)NC(=O)[C@H](CCCNC(=N)N)NC(=O)[C@H](CCC(N)=O)NC(=O)[C@@H](NC(=O)[C@H](C)NC(=O)[C@@H]1CSSC[C@H](NC(=O)[C@H](CCCCN)NC(=O)CC[C@H](NC(=O)CCCCCCCCCCCCCCCCCCC(=O)O)C(=O)O)C(=O)N[C@@H](CC(N)=O)C(=O)N[C@@H]([C@@H](C)O)C(=O)N[C@@H](C)C(=O)N[C@@H]([C@@H](C)O)C(=O)N1)[C@@H](C)O)C(=O)N[C@@H](CC(C)C)C(=O)N1CCC[C@H]1C(=O)N1CCC[C@H]1C(=O)N[C@H](C(=O)N[C@@H](CC(N)=O)C(=O)N[C@H](C(=O)NCC(=O)N[C@@H](CO)C(=O)N[C@@H](Cc1c[nH]cn1)C(=O)N[C@H](C(=O)N[C@@H](Cc1ccc(O)cc1)C(N)=O)[C@@H](C)O)C(C)C)[C@@H](C)O [Example 57, N-alpha-[(S)-4-Carboxy-4-(19-carboxynonadecanoylamino)butyryl]-[Glu14,Arg17,His35]-pramlintide] ({C20 diacid-γGlu}-KCNTATCATQRLAEFLRHSSNNFGPILPPTNVGSHTY-NH2; disulfide 2-7 (inferred); C-terminus assumed) | 17% | 0% |  |  |
| CC[C@H](C)[C@H](NC(=O)[C@@H]1CCCN1C(=O)CNC(=O)[C@H](Cc1ccccc1)NC(=O)[C@H](CC(N)=O)NC(=O)[C@H](CC(N)=O)NC(=O)[C@H](CO)NC(=O)[C@H](CO)NC(=O)[C@H](Cc1c[nH]cn1)NC(=O)[C@H](Cc1c[nH]cn1)NC(=O)[C@H](CC(C)C)NC(=O)[C@H](Cc1ccccc1)NC(=O)[C@H](CCC(=O)O)NC(=O)[C@H](C)NC(=O)[C@H](CC(C)C)NC(=O)[C@H](CCCNC(=N)N)NC(=O)[C@H](CCC(N)=O)NC(=O)[C@@H](NC(=O)[C@H](C)NC(=O)[C@@H]1CSSC[C@H](NC(=O)[C@H](CCCCN)NC(=O)CC[C@H](NC(=O)CCCCCCCCCCCCCCCCC(=O)O)C(=O)O)C(=O)N[C@@H](CC(N)=O)C(=O)N[C@@H]([C@@H](C)O)C(=O)N[C@@H](C)C(=O)N[C@@H]([C@@H](C)O)C(=O)N1)[C@@H](C)O)C(=O)N[C@@H](CC(C)C)C(=O)N1CCC[C@H]1C(=O)N1CCC[C@H]1C(=O)N[C@H](C(=O)N[C@@H](CC(N)=O)C(=O)N[C@H](C(=O)NCC(=O)N[C@@H](CO)C(=O)N[C@@H](Cc1c[nH]cn1)C(=O)N[C@H](C(=O)N[C@@H](Cc1ccc(O)cc1)C(N)=O)[C@@H](C)O)C(C)C)[C@@H](C)O [Example 59, N-alpha-[(S)-4-Carboxy-4-(17-carboxyheptadecanoylamino)butyryl]-[Glu14,His17,His 35]-pramlintide] ({C18 diacid-γGlu}-KCNTATCATQRLAEFLHHSSNNFGPILPPTNVGSHTY-NH2; disulfide 2-7 (inferred); C-terminus assumed) | 59% | 27% |  |  |
| CC[C@H](C)[C@H](NC(=O)[C@@H]1CCCN1C(=O)CNC(=O)[C@H](Cc1ccccc1)NC(=O)[C@H](CC(N)=O)NC(=O)[C@H](CC(N)=O)NC(=O)[C@H](CO)NC(=O)[C@H](CO)NC(=O)[C@H](Cc1c[nH]cn1)NC(=O)[C@H](Cc1c[nH]cn1)NC(=O)[C@H](CC(C)C)NC(=O)[C@H](Cc1ccccc1)NC(=O)[C@H](CCC(=O)O)NC(=O)[C@H](C)NC(=O)[C@H](CC(C)C)NC(=O)[C@H](CCCNC(=N)N)NC(=O)[C@H](CCC(N)=O)NC(=O)[C@@H](NC(=O)[C@H](C)NC(=O)[C@@H]1CSSC[C@H](NC(=O)[C@H](Cc2c[nH]cn2)NC(=O)CC[C@H](NC(=O)CCCCCCCCCCCCCCCCCCC(=O)O)C(=O)O)C(=O)N[C@@H](CC(N)=O)C(=O)N[C@@H]([C@@H](C)O)C(=O)N[C@@H](C)C(=O)N[C@@H]([C@@H](C)O)C(=O)N1)[C@@H](C)O)C(=O)N[C@@H](CC(C)C)C(=O)N1CCC[C@H]1C(=O)N1CCC[C@H]1C(=O)N[C@H](C(=O)N[C@@H](CC(N)=O)C(=O)N[C@H](C(=O)NCC(=O)N[C@@H](CO)C(=O)N[C@@H](CC(N)=O)C(=O)N[C@H](C(=O)N1CCC[C@H]1C(N)=O)[C@@H](C)O)C(C)C)[C@@H](C)O [Example 84, N-alpha-[(S)-4-Carboxy-4-(19-carboxynonadecanoylamino)butyryl]-[His1, Glu14, His17, Pro37]-pramlintide] ({C20 diacid-γGlu}-HCNTATCATQRLAEFLHHSSNNFGPILPPTNVGSNTP-NH2; disulfide 2-7) | 68% | 67% |  |  |
| CC[C@H](C)[C@H](NC(=O)[C@@H]1CCCN1C(=O)CNC(=O)[C@H](Cc1ccccc1)NC(=O)[C@H](CC(N)=O)NC(=O)[C@H](CC(N)=O)NC(=O)[C@H](CO)NC(=O)[C@H](CO)NC(=O)[C@H](CCCNC(=N)N)NC(=O)[C@H](Cc1c[nH]cn1)NC(=O)[C@H](CC(C)C)NC(=O)[C@H](Cc1ccccc1)NC(=O)[C@H](CCC(=O)O)NC(=O)[C@H](C)NC(=O)[C@H](CC(C)C)NC(=O)[C@H](CCCNC(=N)N)NC(=O)[C@H](CCC(N)=O)NC(=O)[C@@H](NC(=O)[C@H](C)NC(=O)[C@@H]1CSSC[C@H](NC(=O)[C@H](Cc2c[nH]cn2)NC(=O)CC[C@H](NC(=O)CCCCCCCCCCCCCCCCCCC(=O)O)C(=O)O)C(=O)N[C@@H](CC(N)=O)C(=O)N[C@@H]([C@@H](C)O)C(=O)N[C@@H](C)C(=O)N[C@@H]([C@@H](C)O)C(=O)N1)[C@@H](C)O)C(=O)N[C@@H](CC(C)C)C(=O)N1CCC[C@H]1C(=O)N1CCC[C@H]1C(=O)N[C@H](C(=O)N[C@@H](CC(N)=O)C(=O)N[C@H](C(=O)NCC(=O)N[C@@H](CO)C(=O)N[C@@H](CC(N)=O)C(=O)N[C@H](C(=O)N[C@@H](Cc1ccc(O)cc1)C(N)=O)[C@@H](C)O)C(C)C)[C@@H](C)O [compound 1] ({C20 diacid-γGlu}-HCNTATCATQRLAEFLHRSSNNFGPILPPTNVGSNTY-NH2; disulfide 2-7) | 50% | 45% | 93% | 92% |
| CC[C@H](C)[C@H](NC(=O)[C@@H]1CCCN1C(=O)CNC(=O)[C@H](Cc1ccccc1)NC(=O)[C@H](CC(N)=O)NC(=O)[C@H](CC(N)=O)NC(=O)[C@H](CO)NC(=O)[C@H](CO)NC(=O)[C@H](CCCNC(=N)N)NC(=O)[C@H](Cc1c[nH]cn1)NC(=O)[C@H](CC(C)C)NC(=O)[C@H](Cc1ccccc1)NC(=O)[C@H](CCC(=O)O)NC(=O)[C@H](C)NC(=O)[C@H](CC(C)C)NC(=O)[C@H](CCCNC(=N)N)NC(=O)[C@H](CCC(N)=O)NC(=O)[C@@H](NC(=O)[C@H](C)NC(=O)[C@@H]1CSSC[C@H](NC(=O)CC[C@H](NC(=O)CCCCCCCCCCCCCCCCCCC(=O)O)C(=O)O)C(=O)NCC(=O)N[C@@H]([C@@H](C)O)C(=O)N[C@@H](C)C(=O)N[C@@H]([C@@H](C)O)C(=O)N1)[C@@H](C)O)C(=O)N[C@@H](CC(C)C)C(=O)N1CCC[C@H]1C(=O)N1CCC[C@H]1C(=O)N[C@H](C(=O)N[C@@H](CCC(=O)O)C(=O)N[C@H](C(=O)NCC(=O)N[C@@H](CO)C(=O)NCC(=O)N[C@H](C(=O)N[C@@H](Cc1ccc(O)cc1)C(N)=O)[C@@H](C)O)C(C)C)[C@@H](C)O [compound 3] ({C20 diacid-γGlu}-CGTATCATQRLAEFLHRSSNNFGPILPPTEVGSGTY-NH2; disulfide 1-6 (inferred); C-terminus assumed) | 37% | 32% |  |  |
